# Measured values reported in patent US20240024093A1, “INTRAOCULAR DRUG DELIVERY SYSTEMS AND METHODS OF USE” (SpyGlass Pharma, Inc., priority 2022, published 2024).
# Legend:
# [1] = Bimatoprost sampled in the aqueous humor of dogs over time (FIG. 9); assay type: in vivo
# Text: FIG. 9 is an exemplary graph of a therapeutic agent delivered to the aqueous humor of an eye of canines versus time.
# In this example, there was a low dose group of dogs (Grp 1), a mid-dose group of dogs (Grp 2), a high dose group of dogs (Grp 3), and a placebo group of dogs (Grp 4).
# [2] = daily release or elution of Bimatoprost in vitro versus time (FIG. 8); assay type: physicochemical; conditions: four-hundred-day study
# Text: FIG. 8 is an exemplary graph of daily release or elution of a pharmaceutical or therapeutic agent in vitro versus time. […] The target release rate in this study on rabbits was 0.050 to 0.100 micrograms per day.
compound,measurement,setting,value
CCNC(=O)CCC/C=C\C[C@@H]1[C@@H](/C=C/[C@@H](O)CCc2ccccc2)[C@H](O)C[C@@H]1O [Bimatoprost],level of Bimatoprost in the aqueous humor (elution kinetics),"[1]; low dose (Grp 1), mid-dose (Grp 2), high dose (Grp 3) groups, study period of about one hundred thirteen days",zero-order elution rate
same,mean measurements of Bimatoprost in the aqueous humor (dose dependence),"[1]; low, mid and high dose groups, FIG. 9",increased with the higher doses
same,average release rate,[2],less than 0.100 micrograms per day
same,release rate over the study (release kinetics),[2],essentially a zero-order and/or a steady state elution rate
